Values quoted from earlier work, collected in patent publication US20040204435A1, “Alternating treatment with topoisomerase I and topoisomerase II inhibitors” (priority 2003, published 2004).

Legend:
[1] = for clinical effectiveness: cancer patients
[2] = mouse plasma
[3] = humans, plasma
[4] = carboxylate versus CPT (lactone)
[5] = not given; remark: listed apart in the source

Structure (SMILES)	effect on human tumor xenografts in nude mice (human tumor xenografts)	clinical effectiveness [1]	solubility in water	further results
CC[C@@]1(O)C(=O)OCc2c1cc1n(c2=O)Cc2cc3c(N)cccc3nc2-1 [9-aminocamptothecin]	completely eradicate	insufficiently effective		
CC[C@@]1(O)C(=O)OCc2c1cc1n(c2=O)Cc2cc3c([N+](=O)[O-])cccc3nc2-1 [9NC, 9-nitrocamptothecin]	completely eradicate	less effective against human pancreas tumors in humans than against human cancer xenografts in nude mice		administered dose circulating as active lactone form [2]: Up to 50%; drug circulating as lactone [3]: 2-5%
CCC(O)(C(=O)O)c1cc2n(c(=O)c1CO)Cc1cc3ccccc3nc1-2 (stereo not shown) [CPT carboxylate]			soluble	anticancer activity relative to CPT [4]: ~10%
CC[C@@]1(O)C(=O)OCc2c1cc1n(c2=O)Cc2cc3ccccc3nc2-1 [CPT lactone]			insoluble	
CC[C@@]1(O)C(=O)OCc2c1cc1n(c2=O)Cc2cc3ccccc3nc2-1 [CPT, Camptothecin]	completely eradicate	much less effective in cancer patients than in mice		dose-limiting toxicity ([1]; clinical trials (9NC: phase I-II)): diarrhea
CCc1c2c(nc3ccc(OC(=O)N4CCC(N5CCCCC5)CC4)cc13)-c1cc3c(c(=O)n1C2)COC(=O)[C@]3(O)CC [Camptosar, irinotecan]			water soluble	
CC[C@@]1(O)C(=O)OCc2c1cc1n(c2=O)Cc2cc3c(CN(C)C)c(O)ccc3nc2-1 [Topotecan]			water soluble	
CC[C@@](O)(C(=O)[O-])c1cc2n(c(=O)c1CO)Cc1cc3ccccc3nc1-2.[Na+] [sodium salt of CPT]				toxicities ([5]; in vivo): myelosuppression, diarrhea and cystitis; clinical benefit ([5]; phase I and II trials 1970-1972): no clinical benefit
